From patent US7582645B2, “Pyrimidine derivatives for treatment of hyperproliferative disorders” (Bayer Pharmaceuticals Corporation, priority 2003, dated 2009)

system: HCT116 cells; assay: HCT116 cytotoxic activity assay (Alamar Blue, 72 h); assay type: cell-based; conditions: Homo sapiens, HCT-116, 72 h compound exposure, greater than 500 nM but less than or equal to 2 μM
Experimental: Representative compounds of this invention were tested for cytotoxicity using the above-described assay procedure with the following results: […]

SMILES | IC50 [nM]
Nc1nc(Nc2cccc(Oc3ccnc(N4CCC[C@H]4CO)c3)c2)cc(-c2ccccc2)n1 [Example 128, [(2S)-1-(4-{3-[(2-amino-6-phenylpyrimidin-4-yl)amino]phenoxy}pyridin-2-yl)pyrrolidin-2-yl]methanol] | 500 to 2000
CN1CCN(c2cc(Oc3cccc(Nc4cc(-c5ccccc5)nc(N)n4)c3)ccn2)CC1 [Example 130, N4*-(3-{[2-(4-methylpiperazin-1-yl)pyridin-4-yl]oxy}phenyl)-6-phenylpyrimidine-2,4-diamine] | 500 to 2000

same assay, conditions: Homo sapiens, HCT-116, 72 h compound exposure, greater than 2 μM

SMILES | IC50 [nM]
COC[C@@H]1CCCN1c1cc(Oc2cccc(Nc3cc(-c4ccccc4)nc(N)n3)c2)ccn1 [Example 122, N4*-[3-({2-[2-(methoxymethyl)pyrrolidin-1-yl]pyridin-4-yl}oxy)phenyl]-6-phenylpyrimidine-2,4-diamine] | > 2000
COCCN(CCOC)c1cc(Oc2cccc(Nc3cc(-c4ccccc4)nc(N)n3)c2)ccn1 [Example 126, N4*-[3-({2-[bis(2-methoxyethyl)amino]pyridin-4-yl}oxy)phenyl]-6-phenylpyrimidine-2,4-diamine] | > 2000

same assay, conditions: Homo sapiens, HCT-116, 72 h compound exposure, less than or equal to 500 nM

SMILES | IC50 [nM]
Nc1ccc(-c2cc(Nc3ccc(Oc4ccnc(Cl)c4)cc3)nc(N)n2)cc1 [Example 116, 6-(4-aminophenyl)-N4*- {4-[(2-chloropyridin-4-yl)oxy]phenyl}pyrimidine-2,4-diamine] | ≤ 500
Nc1nc(Nc2ccc(Oc3ccnc(Cl)c3)c(F)c2)cc(-c2ccccc2)n1 [Example 117, N4*-{4-[(2-chloropyridin-4-yl)oxy]-3-fluorophenyl}-6-phenylpyrimidine-2,4-diamine] | ≤ 500
Nc1cccc(-c2cc(Nc3ccc(Oc4ccnc(Cl)c4)cc3)nc(N)n2)c1 [Example 118, 6-(3-aminophenyl)-N4*-{4-[(2-chloropyridin-4-yl)oxy]phenyl}pyrimidine-2,4-diamine] | ≤ 500
Nc1nc(Nc2cccc(Oc3ccnc(N4CCCCC4)c3)c2)cc(-c2ccccc2)n1 [Example 119, 6-phenyl-N4*-{3-[(2-piperidin-1-ylpyridin-4-yl)oxy]phenyl}pyrimidine-2,4-diamine] | ≤ 500
Nc1nc(Nc2cccc(Oc3ccnc(N4CCOCC4)c3)c2)cc(-c2ccccc2)n1 [Example 120, N4*-{3-[(2-morpholin-4-ylpyridin-4-yl)oxy]phenyl}-6-phenylpyrimidine-2,4-diamine] | ≤ 500
Nc1nc(Nc2cccc(Oc3ccnc(N4CCCC4)c3)c2)cc(-c2ccccc2)n1 [Example 121, 6-phenyl-N4*-{3-[(2-pyrrolidin-1-ylpyridin-4-yl)oxy]phenyl}pyrimidine-2,4-diamine] | ≤ 500
Nc1nc(Nc2cccc(Oc3ccnc(N4CCC[C@@H]4CO)c3)c2)cc(-c2ccccc2)n1 [Example 123, [(2R)-1-(4-{3-[(2-amino-6-phenylpyrimidin-4-yl)amino]phenoxy}pyridin-2-yl)pyrrolidin-2-yl]methanol] | ≤ 500
COCCN(C)c1cc(Oc2cccc(Nc3cc(-c4ccccc4)nc(N)n3)c2)ccn1 [Example 124, N4*-[3-({2-[(2-methoxyethyl)(methyl)amino]pyridin-4-yl}oxy)phenyl]-6-phenylpyrimidine-2,4-diamine] | ≤ 500
CC1CCCN1c1cc(Oc2cccc(Nc3cc(-c4ccccc4)nc(N)n3)c2)ccn1 (stereo not drawn) [Example 125, N4*-(3-{[2-(2-methylpyrrolidin-1-yl)pyridin-4-yl]oxy}phenyl)-6-phenylpyrimidine-2,4-diamine] | ≤ 500
Nc1nc(Nc2cccc(Oc3ccnc(N(CCO)CCO)c3)c2)cc(-c2ccccc2)n1 [Example 127, 2,2′-[(4-{3-[(2-amino-6-phenylpyrimidin-4-yl)amino]phenoxy}pyridin-2-yl)imino]diethanol] | ≤ 500
Nc1nc(Nc2ccc(Oc3ccnc(N(CCO)CCO)c3)cc2)cc(-c2ccccc2)n1 [Example 129, 2,2′-[(4-{4-[(2-amino-6-phenylpyrimidin-4-yl)amino]phenoxy}pyridin-2-yl)imino]diethanol] | ≤ 500
